Reference: patent US20200331904A1, “3-AMINO-[1,2,4]-TRIAZOLE DERIVATIVES AND THEIR USE FOR CONTROLLING UNDESIRED PLANT GROWTH” (Bayer CropScience Aktiengesellschaft, priority 2017, published 2020)

Assays:
Assay type in all cases: in vivo
[1] = system: Echinochloa crus-galli; test: Pre-emergence herbicidal efficacy, ECHCG; conditions: Table B1, application rate 320 g/ha, scored visually after about 3 weeks vs untreated controls
Description: (§1) C.1 Pre-Emergence Herbicidal Action and Crop Plant Compatibility
(§2) Seeds of monocotyledonous and dicotyledonous weed plants and crop plants are placed in plastic or organic planting pots and covered with soil. The compounds of the invention, formulated in the form of wettable powders (WP) or as emulsion concentrates (EC), are then applied onto the surface of the covering soil as aqueous suspension or emulsion with addition of 0.5% additive at a water application rate of […] (converted). After the treatment, the pots are placed in a greenhouse and kept under good growth conditions for the trial plants. After about 3 weeks, the effect of the preparations is scored visually in comparison with untreated controls as percentages. For example, 100% activity=the plants have died, 0% activity=like control plants.
(§3) ABUTH: Abutilon theophrasti ALOMY: Alopecurus myosuroides AMARE: Amaranthus retroflexus AVEFA: Avena fatua CYPES: Cyperus esculentus ECHCG: Echinochloa crus-galli LOLMU: Lolium multiflorum MATIN: Matricaria inodora PHBPU: Ipomoea purpurea POLCO: Polygonum convolvulus SETVI: Setaria viridis STEME: Stellaria media VERPE: Veronica persica VTOTR: Viola tricolor

[2] = system: Lolium rigidum; test: Pre-emergence herbicidal efficacy, LOLRI; conditions: Table B1, application rate 320 g/ha, scored visually after about 3 weeks vs untreated controls
Description: C.1 Pre-Emergence Herbicidal Action and Crop Plant Compatibility Seeds of monocotyledonous and dicotyledonous weed plants and crop plants are placed in plastic or organic planting pots and covered with soil. The compounds of the invention, formulated in the form of wettable powders (WP) or as emulsion concentrates (EC), are then applied onto the surface of the covering soil as aqueous suspension or emulsion with addition of 0.5% additive at a water application rate of […] (converted). After the treatment, the pots are placed in a greenhouse and kept under good growth conditions for the trial plants. After about 3 weeks, the effect of the preparations is scored visually in comparison with untreated controls as percentages. For example, 100% activity=the plants have died, 0% activity=like control plants. […] Here, for example, compound Nos. I-214 and I-196, when applied pre-emergence, have very good activity (80% to 100% herbicidal activity) against harmful plants such as Abutilon theophrasti, Amaranthus retroflexus, Echinochloa crus-galli, Lolium rigidum, Matricaria inodora, Polygonum convolvulus, Setaria viridis, Stellaria media, Veronica persica and Viola tricolor at an application rate of 0.32 kg of active substance or less per hectare. At the same time, some of the compounds according to the invention leave Gramineae crops such as barley, wheat, rye, millet/sorghum, corn, rice or sugar cane virtually undamaged when applied pre-emergence, even at high active compound dosages. In addition, some substances are also harmless to dicotyledonous crops such as soya, cotton, oilseed rape or sugar beet.

[3] = system: Setaria viridis; test: Pre-emergence herbicidal efficacy, SETVI; conditions: Table B1, application rate 320 g/ha, scored visually after about 3 weeks vs untreated controls
Description: as §1, §2, §3

[4] = system: Abutilon theophrasti; test: Pre-emergence herbicidal efficacy, ABUTH; conditions: Table B1, application rate 320 g/ha, scored visually after about 3 weeks vs untreated controls
Description: as §1, §2, §3

[5] = system: Amaranthus retroflexus; test: Pre-emergence herbicidal efficacy, AMARE; conditions: Table B1, application rate 320 g/ha, scored visually after about 3 weeks vs untreated controls
Description: as §1, §2, §3

[6] = system: Matricaria inodora; test: Pre-emergence herbicidal efficacy, MATIN
Description: as §1, §2, §3

[7] = system: Polygonum convolvulus; test: Pre-emergence herbicidal efficacy, POLCO; conditions: Table B1, application rate 320 g/ha, scored visually after about 3 weeks vs untreated controls
Description: as §1, §2, §3

[8] = system: Stellaria media; test: Pre-emergence herbicidal efficacy, STEME
Description: as §1, §2, §3

[9] = system: Viola tricolor; test: Pre-emergence herbicidal efficacy, VIOTR
Description: as §1, §2, §3

[10] = system: Veronica persica; test: Pre-emergence herbicidal efficacy, VERPE; conditions: Table B1, application rate 320 g/ha, scored visually after about 3 weeks vs untreated controls
Description: as §1, §2, §3

[11] = Table B1, application rate 320 g/ha, scored visually after about 3 weeks vs untreated controls
[12] = application rate 320 g/ha, scored visually after about 3 weeks

Compound	Herbicidal efficacy against ECHCG [1] [%]	Herbicidal efficacy against LOLRI [2] [%]	Herbicidal efficacy against SETVI [3] [%]	Herbicidal efficacy against ABUTH [4] [%]	Herbicidal efficacy against AMARE [5] [%]	Herbicidal efficacy against MATIN [6, 11] [%]	Herbicidal efficacy against POLCO [7] [%]	Herbicidal efficacy against STEME [8, 11] [%]	Herbicidal efficacy against VIOTR [9, 11] [%]	Herbicidal efficacy against VERPE [10] [%]	Herbicidal efficacy against MATIN [6, 12] [%]	Herbicidal efficacy against STEME [8, 12] [%]	Herbicidal efficacy against VIOTR [9, 12] [%]
Cc1ccc2c(c1)C(Nc1nc3n(n1)CCN(C(C)C)C3)C(C)C2 (stereo not drawn) [Example I-152]	100	100	100	100	100	100	100	100	100	100			
Cc1ccc2c(c1)C(Nc1nc3n(n1)CCN(C(=O)C1CC1)C3)C(C)C2 (stereo not drawn) [Example I-167]	100	100	100	100	100	100	100	100	100	100			
Cc1ccc2c(c1)C(Nc1nc3n(n1)CCN(C(=O)c1ccc(Cl)cc1)C3)C(C)C2 (stereo not drawn) [Example I-171]	90	100	100	100	100	100	100	100	100	100			
Cc1ccc2c(c1)[C@H](Nc1nc3n(n1)CCN(C(=O)C1CC1)C3)CC2 [Example I-175]	100	100	100	100	100	100	100	100	100	100			
Cc1ccc2c(c1)[C@H](Nc1nc3n(n1)CCN(C(=O)C1CC1)C3)CCC2 [Example I-182]	90	100	100	100	100	100	100	100	100	100			
Cc1ccc2c(c1)[C@H](Nc1nc3n(n1)CCN(S(=O)(=O)C(C)C)C3)[C@@H](C)C2 [Example I-191]	100	100	100	100	100	100	100	100	100	100			
Cc1ccc2c(c1)[C@H](Nc1nc3n(n1)CCN(S(C)(=O)=O)C3)CC2 [Example I-196]	100	100	100	100	100	100	100	100	100	100			
Cc1ccc2c(c1)[C@H](Nc1nc3n(n1)CCN(S(=O)(=O)C(C)C)C3)CC2 [Example I-197]	90	80	100	100	100	100	80	100	100	100			
Fc1ccc2c(c1)[C@H](Nc1nc3n(n1)CCCCS3)CCC2 [Example I-215]	100	100	100	100	100	100	100	100	100	100			
Cc1ccc2c(c1)C(Nc1nc3n(n1)CCCS3(=O)=O)CC2 (stereo not drawn) [Example I-238]	80	90	100	100	100	100	100	100	100	100			
Cc1ccc2c(c1)C(Nc1nc3n(n1)CCCC[S+]3[O-])CCC2 (stereo not drawn) [Example I-246]	100	100	100	80	100	100	100	100	100	100			
Cc1ccc2c(c1)C(Nc1nc3n(n1)CCC(=O)N3CC1CC1)CCC2 (stereo not drawn) [Example I-254]	80	100	100	100	100	100	100	100	100	100			
Cc1ccc2c(c1)C(Nc1nc3n(n1)CCC(=O)N3CC1CCCCC1)CC2 (stereo not drawn) [Example I-256]	90	80	100	100	100	100	100	100	100	100			
CC(=O)N1CCCn2nc(NC3CCCc4ccc(C)cc43)nc21 (stereo not drawn) [Example I-321]		100		80	100	100	90	100	100	100	100	100	100
CC1CCc2ccccc2C1Nc1nc2n(n1)CCCCS2 (stereo not drawn) [Example I-356]	100	100	100		100	100	100	100	100	100			
Cc1ccc2c(c1)[C@H](Nc1nc3n(n1)CCCCS3(=O)=O)CCO2 [Example I-381]		100	100	100	100	100	100	100	100	100			
